In US20180213776A1, “COMPOSITIONS FOR C[…] POPULATIONS” (PRESIDENT AND FELLOWS OF HARVARD COLLEGE, priority 2015, published 2018):

Legend:
An. gambiae females [1] = test: Dose dependency of egg laying (oviposition); type: in vivo; conditions: for individuals laying eggs: 24 hours prior to blood feeding, control 100%
Method: (§1) An. gambiae mosquitoes of the G3 strain were employed in all experiments. All mosquitoes were maintained under standard insectary conditions (26-28° C., 65-80% relative humidity, 12:12 hours light/dark photoperiod).
Mated females were tested for their ability to develop and lay eggs when exposed to DBH 24 hours prior to blood feeding at 5 different doses ranging in a 2-fold dilution series from about 2 μg to about 0.125 μg per mosquito, respectively. One hundred percent (100%) of the control females oviposited after a blood meal. […] An ED50 dose of […] (0.08-0.13 95% CI) was determined from the dose-response curve (slope of 2.32, R=0.993). Moreover, even in cases where females oviposited, a significant reduction in the number of eggs laid was detected at the three highest doses (e.g., 2 μg; 1 μg; and 0.5 μg), with a median egg number of zero compared to a median of 91.5 eggs in the control group.

An. gambiae females [2] = test: Egg development after blood feeding; type: in vivo
Method: as §1
(§2) The DBH compound methoxyfenozide (0.5 μl of a 0.4% solution re-suspended in acetone) (Sigma-Aldrich, 32507) was topically applied to the thorax of An. gambiae females anesthetized on ice using a micropipette. Mating success, egg development after blood feeding and longevity were determined relative to acetone-treated controls. Females were 2 days old at the time of application, and each experiment was replicated twice. The effects of methoxyfenozide on mating success were determined by adding DBH-treated and control virgin females into separate cages containing a large excess of 5 day-old virgin males, 24 hours following topical application. 48 hours later successfully inseminated (mated) females from each cage were determined via dissection and the presence of sperm in the spermatheca. […] Egg development was evaluated 3 days later upon dissection of the ovaries.
(§3) A mating effect experiment was comprised of an unexposed and exposed group with cases defined as those who mated. The efficacy of the mating effect was defined as the prevented fraction in exposed, i.e. one minus the risk ratio. […]

[3] = test system: primary ovarian follicles; test: TUNEL assay of ovaries (apoptosis of ovarian follicles); type: in vivo, An. gambiae; conditions: 24 hours after DBH exposure
Text: Induction of autogenous egg development after exposure was not observed.

mammals = conditions: cited from earlier work
[4] = test system: P. falciparum (NF54 strain); test: P. falciparum infection (oocysts) after infectious blood meal; type: in vivo
Method: (§4) At the highest dose (2 μg), only 7.5% of females who fully engorged on an infectious blood meal were positive for oocysts, corresponding to an 87% reduction in infection prevalence relative to controls.

An. gambiae females [5] = test: Longevity / mortality after DBH exposure; type: in vivo
Method: as §1
For the longevity experiments, DBH-treated and control females were maintained in cups and supplied ad libitum with a 10% sucrose solution and water. Mortality rates after DBH/acetone exposure were recorded daily for 2 weeks, encompassing the period needed for mosquitoes to become infectious.
Day post-exposure was stratified to account for the time varying nature in the mortality effect experiment. For each day, there is the number of exposed and unexposed mosquitoes surviving to that day (risk set), and the number in each group surviving through that day. Using the risk set in day i, the relative risk of surviving through day i (RRi) is estimated, comparing the exposed to the unexposed. The efficacy for the mortality was defined as one minus RRi for day i. The confidence interval for the relative risk of survival was estimated using a Normal approximation of ln(RRi), with standard error:
as §4

Aedes species = test: Preliminary data on eggs of Aedes species; type: in vivo
An. gambiae females [6] = test: Mating success (insemination) after topical DBH application; type: in vivo
Method: as §1, §2, §3

methoxyfenozide [DBH]
females with no eggs developed in the ovaries despite fully engorging on blood (An. gambiae females [1]; all DBH-exposed groups, upon dissection): 98.7%
individuals laying eggs (An. gambiae females [1]; highest dose 2 μg per mosquito): 10.9%
induction of autogenous egg development after exposure (An. gambiae females [1]; in vivo): not observed
individuals laying eggs (An. gambiae females [1]; median dose 0.5 μg per mosquito): 47.4%
median egg number laid (An. gambiae females [1]; three highest doses (2 μg; 1 μg; 0.5 μg), control median 91.5 eggs): zero
egg development after blood feeding (An. gambiae females [2]; 0.5 μl of 0.4% solution topical, blood fed 24 hours after application, ovaries dissected 3 days later): completely abolished
efficacy: impaired egg development (reduction) (An. gambiae females [2]; prevented fraction in exposed, add-one smoothing, 68% CI 94-99%): 98%
TUNEL: apoptosis of primary ovarian follicles [3]: extensive fragmentation of chromatin, indicative of apoptosis
carcinogenicity (mammals): non-carcinogenic
toxicity to mammals (mammals): not toxic to mammals unless used at extremely high concentrations
reduction in infection prevalence relative to controls ([4]; 2 μg): 87%
females positive for oocysts ([4]; 2 μg, 7 days post-infectious blood meal, control 58.5%): 7.5%
intensity of infection in females that developed oocysts ([4]; in vivo): not significantly affected
oocyst prevalence ([4]; low dose 0.125 μg, control 58.5%): 50.7%
females failed to develop an infection ([4]; median dose 0.5 μg): 25.8%
reduction in prevalence ([4]; median dose 0.5 μg): 56%
median survival time (An. gambiae females [5]; 0.125 μg, control 19 days): 16 days
median survival time (An. gambiae females [5]; 2 μg, control 19 days): 11 days
mortality over 14 days (An. gambiae females [5]; 0.5 μl of 0.4% solution topical, controls 10%): ~100%
median survival time (An. gambiae females [5]; 0.5 μl of 0.4% solution topical, recorded 2 weeks): 8 days
efficacy: maximum increase in daily mortality rate (An. gambiae females [5]; day 8 post exposure, 68% CI 37-72%): 60%
reduction in median survival time compared to controls (An. gambiae females [5]; highest dose (2 μg)): eight
effect on eggs (Aedes species): deformed eggs
efficacy: reduced mating success (reduction) (An. gambiae females [6]; prevented fraction in exposed, 68% CI 58-73%): 67%
females successfully inseminated by males (sperm in the spermatheca) (An. gambiae females [6]; treated once, 0.5 μl of 0.4% solution topically to thorax, controls 86%): 29%
